Assay results published in publication PMC2867821 (Molecular Cancer, 2010).
Read-outs that look alike come from different tables or passages of the source. Each block holds one compound with its values, some of them ahead of it. Residues, ends and D or L forms follow the SMILES beside them. *: point of attachment. Cbz = O=C(OCc1ccccc1)*; CH2F = FC*

Experiments:
SK-MEL-110 [1] = experiment: Proliferation of SK-MEL-110 on collagen-IV with FGF-2 (cell count); assay type: cell-based, human; conditions: 500 μg/ml, 48 h, FGF-2 10 ng/ml
Procedure: Representative images are reported. […] Three independent experiments were performed.

[2] = target: T1, GST-C-terminus-survivin (Lys90-Asp142) (Homo sapiens, UniProt O15392); experiment: Solid phase assay, GST-fusion protein; assay type: binding
T1 construct: C-terminus (Lys90-Asp142); made in house; host or cells: E. coli BL21(DE3)pLysS
T1 sequence (O15392 90-142): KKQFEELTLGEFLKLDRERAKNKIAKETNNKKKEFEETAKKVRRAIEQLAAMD
Procedure: (§1) Three independent experiments were performed.
(§2) Full length survivin and both N-terminus (Met1-Gly99) or C-terminus (Lys90-Asp142) were PCR amplified and cloned, using EcoRI and BamHI restriction sites, in pGex6P2 (GE Healthcare) for expression of GST fusion proteins in E. coli BL21(DE3)pLysS (PROMEGA, Southampton, United Kingdom).
(§3) Briefly, microtiter plates (Costar, Cambridge, MA) were coated with 175 nM (100 μl/well) recombinant GST-fusion proteins diluted in AC7.5 buffer for 4 h at RT. […] After washing four times and incubation for 1 h at RT with 100 μl/well Vectastain-ABC Reagent (Vector Laboratories, Burlingame, CA), wells were stained with the ELISA Amplification System (Invitrogen, Carlsbad, CA) according to manufacturer's instructions and absorption at 495 nm (A495) was determined. Specific binding was computed by subtracting nonspecific from total binding at each concentration. Curve fit was carried out according to the following one-site specific bind equation (GraphPad Prism-4 software):(1) [drawing 1]
(§4) where X is ligand concentration, Y is the specific binding, Bmax is the maximum specific binding in the same units as Y, Kd is the equilibrium binding constant, in the same units as X.

SK-MEL-110 [3] = test system: SK-MEL-110
GST-Full length survivin = GST-Full length survivin (Homo sapiens, UniProt O15392); experiment: Solid phase assay, GST-fusion protein; assay type: binding; parameters: Full length survivin and both N-terminus (Met1-Gly99) or C-terminus (Lys90-Asp142) were PCR amplified and cloned; made in house; host or cells: E. coli BL21(DE3)pLysS
GST-Full length survivin, sequence (O15392 whole entry, the tested form may be a part): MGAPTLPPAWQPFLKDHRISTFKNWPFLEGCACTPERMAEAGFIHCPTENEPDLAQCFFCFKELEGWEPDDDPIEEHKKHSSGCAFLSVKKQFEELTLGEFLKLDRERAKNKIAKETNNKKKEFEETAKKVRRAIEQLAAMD
Procedure: as §1, §2, §3, §4

active caspase-3 = experiment: Caspase-3 activation by confocal microscopy; assay type: cell-based, human; conditions: 500 μg/ml, 48 h, FGF-2; anti-active caspase-3 antibody
SK-MEL-110 [4] = experiment: Peptide internalization in SK-MEL-110 by FACS (PE-avidin); conditions: biotinylated peptide
SK-MEL-110 [5] = experiment: RGDS anti-proliferative effect after pre-treatment with caspase inhibitor; assay type: cell-based, human; conditions: Z-VAD-FMK 50 μM, 2 h pre-treatment, then RGDS; p < 0.005 vs FGF-2 in the presence of Z-VAD-FMK
survivin = test system: survivin; parameters: method as in PMID 17389612, PMID 18537980; conditions: wide range of tumor cells; cited from earlier work

Procedure for SK-MEL-110 and HUVEC: Cytoplasmic lysates were spotted onto nitrocellulose, blocked with 5% milk in TPBS (0.1% Tween 20 in PBS) and incubated for 1 h at RT with a Vectastain ABC-peroxidase kit (Vector) followed by chemiluminescence reaction and exposure to Kodak film (Eastman Kodak). Interaction was quantified by densitometry (GS 710; Bio-Rad) and analyzed using the "Quantity one" software (Bio-Rad).
Three independent experiments were carried out.

Compound: NC(N)=NCCC[C@H](N)C(=O)NCC(=O)N[C@@H](CC(=O)O)C(=O)N[C@@H](CO)C(=O)O [RGDS, Arg-Gly-Asp-Ser]
inhibition of FGF-2-induced proliferation (SK-MEL-110 [1]; collagen-IV 50 μg/ml, mean ± SD of 5 experiments in duplicate, RGDS p < 0.005): 46 ± 16%
Kd [2]: 30 µM
internalization kinetics (SK-MEL-110 [3]): in a time-dependent manner
internalization in melanoma cells vs HUVEC (SK-MEL-110 and HUVEC): markedly higher in melanoma cells vs HUVEC
Kd (GST-Full length survivin): 27.5 µM

caspase-3 activation (active caspase-3): no effect on caspase-3 activation
internalization relative to RGDS (less than RGDS) (SK-MEL-110 [4]; 24 h, RGES less than RGDS): 25%
positive cells (internalization) (SK-MEL-110 [4]; 24 h incubation, PE-avidin, FACS, three independent experiments): about 30%
internalization kinetics (SK-MEL-110 [4]; 2, 6, 16 and 24 h, FACS): internalized with slower kinetics
Compound: Arg-Gly-Glu-Ser [RGES]
anti-proliferative effect (SK-MEL-110 [1]; collagen-IV): no anti-proliferative effect

Compound: COC(=O)C[C@H](NC(=O)[C@H](C)NC(=O)[C@@H](NC(=O)OCc1ccccc1)C(C)C)C(=O)CF [Z-VAD-FMK] (Cbz-Val-Ala-Asp(OMe)-CH2F)
effect on RGDS anti-proliferative action (SK-MEL-110 [5]): significantly abolished the RGDS anti-proliferative effect

Compound: Cc1ccc(-c2cc(C(F)(F)F)nn2-c2ccc(S(N)(=O)=O)cc2)cc1 [colecoxib]
survivin expression (survivin): down-regulate survivin expression
